Results: patent publication US20040259948A1, “Reciprocal regulation of inflammation and lipid metabolism by liver X receptors” (priority 2003, published 2004)

Key:
[1] = system: Thioglycolate-elicited murine peritoneal macrophages; experiment: Expression of NF-κB target genes in LPS-treated macrophages (northern blot, real-time quantitative PCR); type: cell-based
Experimental: LPS is an established inducer of the NF-κB signaling pathway in macrophages. Several genes inhibited by LXR ligands in the array studies above are established targets of NF-κB. To further investigate the role of LXRs in NF-κB-dependent gene expression, we analyzed expression of NF-κB target genes in peritoneal macrophages from wild-type mice. […] Expression of NF-κB target genes was determined by northern blot (A) or by real-time quantitative PCR assays (B). 36B4 was used as a control for RNA loading and integrity. […] RNA and protein analysis. Total RNA was extracted using Trizol reagent (Life Technologies, Inc.). Northern blot analysis was carried out as described using radiolabeled cDNA probes (Tontonoz, P. et al. 1998 Cell 93:241-252). Real-time quantitative PCR (TaqMan) analysis was performed using an Applied Biosystems 7700 sequence detector. Two-step real-time PCR was performed as described (Joseph, S. B. et al. 2002 J Biol Chem 277:11019-11025). The primers and probes used are as follows: […]

[2] = system: Thioglycolate-elicited peritoneal macrophages; experiment: Macrophage response to E. coli infection: iNOS mRNA and NO production; type: cell-based, murine; settings: 18 h, pretreated with 1 μM ligand
Experimental: Thioglycolate-elicited peritoneal macrophages were infected in vitro with Escherichia coli. After 18 hours, expression of inducible nitric oxide synthase (iNOS) mRNA and nitric oxide (NO) production were assessed. […] Cells were then infected with E. coli (A, B) or treated with 100 ng/ml LPS(C, D, E) as indicated. After 18 h, NO production was determined using a colorimetric assay (A, D), or mRNA levels were determined using real-time quantitative PCR assays (B, C, E).
Thioglycolate-elicited peritoneal macrophages were cultured in RPMI containing 10% fetal bovine serum (FBS). […] For ligand treatments, cells were in cultured medium supplemented with 5% lipoprotein-deficient serum (LPDS) and ligands for 18 h before stimulation. […] NO production was determined spectrophotometrically (Castrillo, A. et al. 2000 Mol Cell Biol 20:1692-1698).
Total RNA was extracted using Trizol reagent (Life Technologies, Inc.). […] Real-time quantitative PCR (TaqMan) analysis was performed using an Applied Biosystems 7700 sequence detector.

LXRα/RXRα = target: T1, LXRα/RXRα (Homo sapiens, UniProt Q13133); experiment: Luciferase reporter transfection in RAW 264.7 cells, LXRα/RXRα; type: cell-based; settings: 2 μM
T1 construct: expressed in transfected cells; host or cells: RAW 264.7
T1 sequence (Q13133 1-447): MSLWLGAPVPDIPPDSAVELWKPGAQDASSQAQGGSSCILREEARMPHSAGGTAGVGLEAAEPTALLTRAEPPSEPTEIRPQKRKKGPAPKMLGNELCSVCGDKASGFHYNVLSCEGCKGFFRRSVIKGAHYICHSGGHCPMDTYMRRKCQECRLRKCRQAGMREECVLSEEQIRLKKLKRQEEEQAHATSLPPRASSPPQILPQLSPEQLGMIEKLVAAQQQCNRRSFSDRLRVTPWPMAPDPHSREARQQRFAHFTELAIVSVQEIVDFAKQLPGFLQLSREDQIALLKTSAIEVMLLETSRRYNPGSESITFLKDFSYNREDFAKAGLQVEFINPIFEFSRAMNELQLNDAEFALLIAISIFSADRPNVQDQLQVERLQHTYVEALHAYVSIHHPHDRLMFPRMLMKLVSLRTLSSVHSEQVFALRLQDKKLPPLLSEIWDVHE
T1 sequence (P19793 1-462 partner): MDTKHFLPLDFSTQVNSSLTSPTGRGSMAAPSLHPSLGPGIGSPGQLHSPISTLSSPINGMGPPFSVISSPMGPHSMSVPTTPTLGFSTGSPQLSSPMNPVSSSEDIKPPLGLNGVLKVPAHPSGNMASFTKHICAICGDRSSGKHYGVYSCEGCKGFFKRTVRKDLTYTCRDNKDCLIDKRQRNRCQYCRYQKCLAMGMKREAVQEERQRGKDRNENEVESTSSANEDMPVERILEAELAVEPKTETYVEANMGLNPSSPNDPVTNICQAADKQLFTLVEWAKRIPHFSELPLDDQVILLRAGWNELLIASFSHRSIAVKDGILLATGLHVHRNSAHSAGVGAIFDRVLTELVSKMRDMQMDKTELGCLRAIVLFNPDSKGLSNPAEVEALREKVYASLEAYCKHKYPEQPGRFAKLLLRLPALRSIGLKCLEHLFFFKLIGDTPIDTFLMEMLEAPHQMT
Experimental: We next investigated the mechanism by which LXR inhibits iNOS and COX-2 expression. […] RAW 264.7 cells were transfected with expression vectors for either LXRα/RXRα or LXRβ/RXRα along with luciferase reporter constructs. The LXR agonist inhibited expression of both iNOS and COX-2 gene promoters in a receptor-dependent fashion (FIG. 4 A and B). […] E, A dominant-negative IKK expression vector (IKK DN) blocks LXR-dependent repression of the COX-2 promoter. Transfected cells were treated with DMSO (ctrl), GW3965 (GW), LPS, or GW3965 and LPS. […] RAW 264.7 cells were transiently transfected with expression vectors for LXRα/RXRα, LXRβ/RXRα or dominant-negative I kappa B kinase (IKK) along with iNOS (A), COX-2 (B, E, F), NF-κB (C), AP-1 (D) or COX-2/NF-κB mutant (F) luciferase reporters. […] As activation of iNOS and COX-2 gene promoters by LPS is known to depend on interactions between AP-1 and NF-κB transcription factors, the effect of LXR on minimal promoters containing binding sites for these factors was evaluated. […] Moreover, the inhibitory effect of LXR on the COX-2 promoter was lost when NF-κB activity was blocked by transfection of a dominant-negative IKK or when binding sites for NF-κB were mutated (FIGS. 4E and F). These observations indicate that inhibition of inflammatory gene expression by LXR ligands involves antagonism of NF-κB signaling.
Reagents and plasmids. […] Oxysterols, LDL and ox-LDL were from Sigma and Intracell, respectively. LPS from Salmonella typhimurium was from Sigma. Expression plasmids for LXRα, LXRβ and IKK-DN (Castrillo, A. et al. 2001 J Biol Chem 276:15854-15860; Laffitte, B. A. et al. 2001 Mol Cell Biol 21:7558-7568), and reporter plasmids for NOS-2, (NFκB)3-LUC, (AP-1)4-LUC and COX-2 have been described (Callejas, N. A. et al. 2000 Gastroenterology 119:493-501).
Cell culture and transfections. Thioglycolate-elicited peritoneal macrophages were cultured in RPMI containing 10% fetal bovine serum (FBS). RAW 264.7 cells were cultured in DMEM containing 10% FBS. For ligand treatments, cells were in cultured medium supplemented with 5% lipoprotein-deficient serum (LPDS) and ligands for 18 h before stimulation. Bacterial infection in vitro was performed as described (Chen, L. M. et al. 1996 Mol Microbiol 21:1101-1115). Transient transfections of RAW 264.7 cells were performed in triplicate in 48-well plates using Superfect reagent (Life Technologies). After transfection, cells were incubated in medium containing 10% LPDS and the indicated ligands for 18 h before stimulation with LPS for an additional 18 h. Luciferase activity was normalized to β-galactosidase activity. NO production was determined spectrophotometrically (Castrillo, A. et al. 2000 Mol Cell Biol 20:1692-1698).

[3] = pretreated 18 h, 100 ng/ml LPS 3 h and 6 h, northern blot
[4] = pretreated 18 h, 100 ng/ml LPS 6 h, real-time quantitative PCR

In the case of O=C(O)Cc1cccc(OCCCN(Cc2cccc(C(F)(F)F)c2Cl)CC(c2ccccc2)c2ccccc2)c1 [GW3965], the “receptor-independent induction of IL-6” value [1] is reported as “modest receptor-independent induction”, the “receptor-independent induction of MCP-1” value [1] is reported as “modest receptor-independent induction” and the “iNOS mRNA expression” value ([1]; LPS, FIG. 3a, receptor-dependent) is reported as “inhibition”. For the same molecule, the COX-2 expression [1, 3] was “effective inhibitors”, the lκBα expression [1, 3] was “effective inhibitors” and the “IL1-receptor antagonist (IL-1RN) expression” value [1, 4] was “effective inhibitors”. For the same molecule, the IL-1β expression [1, 4] was “effective inhibitors”, the IL-6 expression [1, 4] was “effective inhibitors” and the MCP-1 expression [1, 4] was “effective inhibitors”. For the same molecule, the “iNOS activity (NO / nitrite production)” value ([2]; colorimetric assay) was “reduced”, the “iNOS mRNA” value ([2]; real-time quantitative PCR) was “significantly reduced” and the “induction of the COX-2 promoter by LPS (luciferase reporter)” value (LXRα/RXRα) was “inhibits induction”. The “induction of the iNOS promoter by LPS (luciferase reporter)” value (LXRα/RXRα) was “inhibits induction”, the “luciferase reporter containing multiple NF-κB binding sites” value (LXRα/RXRα; LPS) was “inhibits expression” and the “COX-2 luciferase reporter lacking the NF-κB binding site” value (LXRα/RXRα; LPS, COX-2/NF-κB mutant) was “fails to inhibit”. For the same molecule, the “inhibitory effect on the COX-2 promoter with dominant-negative IKK” value (LXRα/RXRα; LPS, IKK-DN co-transfected, LXR vector not specified) was “lost”.
